From patent US6906073B2, “Piperazine CCR-3 receptor antagonists” (Roche Palo Alto LLC, priority 2001, dated 2005)
Counter-ions that a name gives are not always drawn.

Experiments:
[1] = target: T1, CCR-3 receptor (Homo sapiens, UniProt P51677); assay: CCR-3 Receptor Binding Assay - In Vitro (inhibition of 125I eotaxin binding to CCR-3 L1.2 transfectant cells); details: inhibition of binding of 125I eotaxin to CCR-3 L1.2 transfectant cells, 1 hour at room temperature
T1 construct: expressed in transfected cells; host or cells: L1.2 (murine pre-B lymphoma line)
T1 sequence (P51677 1-355): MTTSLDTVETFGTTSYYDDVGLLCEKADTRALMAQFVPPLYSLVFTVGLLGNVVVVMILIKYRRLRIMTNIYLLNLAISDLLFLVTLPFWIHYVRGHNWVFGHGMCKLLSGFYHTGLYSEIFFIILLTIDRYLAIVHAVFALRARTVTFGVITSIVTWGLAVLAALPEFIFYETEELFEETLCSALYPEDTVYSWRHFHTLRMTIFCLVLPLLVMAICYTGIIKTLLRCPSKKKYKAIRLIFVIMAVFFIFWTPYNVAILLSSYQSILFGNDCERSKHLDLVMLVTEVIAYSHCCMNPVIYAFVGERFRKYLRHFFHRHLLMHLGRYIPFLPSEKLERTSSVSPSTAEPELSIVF
Experimental: CCR-3 Receptor Binding Assay—In Vitro
The CCR-3 antagonistic activity of the compounds of the invention was determined by their ability to inhibit the binding of ^125I eotaxin to CCR-3 L1.2 transfectant cells (see Ponath, P. D. et al., J. Exp. Med., Vol. 183, 2437-2448, (1996)).
The assay was performed in Costar 96-well polypropylene round bottom plates. Test compounds were dissolved in DMSO and then diluted with binding buffer (50 mM HEPES, 1 mM CaCl2, 5 mM MgCl2, 0.5% bovine serum albumin (BSA), 0.02% sodium azide, pH 7.24) such that the final DMSO concentration was 2%. 25 μl of the test solution or only buffer with DMSO (control samples) was added to each well, followed by the addition of 25 μl of ^125I-eotaxin ([…]) (NEX314, New England Nuclear, Boston, Mass.) and 1.5×10^5 of the CCR-3 L1.2 transfected cells in 25 μl binding buffer. The final reaction volume was 75 μl.
After incubating the reaction mixture for 1 hour at room temperature, the reaction was terminated by filtering the reaction mixture through polyethylenimine treated Packard Unifilter GF/C filter plate (Packard, Chicago, Ill.). The filters were washed four times with ice cold wash buffer containing 10 mm HEPES and 0.5M sodium chloride (pH 7.2) and dried at 65° C. for approximately 10 minutes. 25 μl/well of Microscint-20® scintillation fluid (Packard) was added and the radioactivity retained on the filters was determined by using the Packard TopCount®

| Compound | IC50 [1] | melting point |
| --- | --- | --- |
| COc1cc(NC(=O)N[C@@H]2COC[C@H]2N2CCN(Cc3ccc(Cl)cc3)CC2)cc(OC)c1OC (racemic) [compound 7, (±)-trans-1-{4-[4-(4-chlorobenzyl)-piperazin-1-yl]-tetrahydrofuran-3-yl}-3-(3,4,5-trimethoxyphenyl)urea dihydrochloride] | 0.11 µM |  |
| COc1cc(NC(=O)N[C@@H]2COC[C@H]2N2CCN(Cc3ccc(Cl)cc3)CC2)cc(OC)c1OC (racemic) (as salt: hydrochloride) [compound 7, (±)-trans-1-{4-[4-(4-chlorobenzyl)-piperazin-1-yl]-tetrahydrofuran-3-yl}-3-(3,4,5-trimethoxyphenyl)urea dihydrochloride] |  | 190.8 to 204.3 °C |
| Cc1ccc(C(=O)NC2CCCCC2N2CCN(Cc3ccc(Cl)c(Cl)c3)CC2)cc1 (centres unmarked) [compound 3, N-{2-[4-(3,4-Dichloro-benzyl)-piperazin-1-yl]-cyclohexyl}-4-methyl-benzamide] | 12.8 µM |  |
| O=C(Nc1ccccc1N1CCN(Cc2ccc(Cl)c(Cl)c2)CC1)c1ccc(F)c(F)c1 [compound 2, N-{2-[4-(3,4-dichlorobenzyl)-piperazin-1-yl]-phenyl}-3,4-difluoro-benzamide] | 36 µM |  |
| O=C(Cc1cccs1)Nc1ccccc1N1CCN(Cc2ccc(Cl)c(Cl)c2)CC1 [compound 1, N-{2-[4-(3,4-dichloro-benzyl)-piperazin-1-yl]-phenyl}-2-thiophen-2-yl-acetamide] | 200 µM |  |
